The text below walks through data of US20140341895A1, “PSEUDOMONAS AERUGINOSA OprM EPITOPES FOR USE IN DIAGNOSTICS AND THERAPEUTICS” (priority 2011, published 2014).

Test [1] has as its system P. aeruginosa strain MSC06120. Conditions: multidrug resistant P. aeruginosa strain MSC06120; stated as normal values; cited from earlier work.
Test [2] deals with OprM outer loops. Nature of the test: rabbit immunization with KLH-conjugated OprM outer loop peptides, sera screened for immune reaction. The format is in vivo. Particulars: NZW rabbits, 500 μg per injection subcutaneously on days 0, 21, 42, 63, 84, 105; sera screened for immune reaction to OprM outer loops. The procedure:
Polyclonal antibodies were produced using each of the OprM outer loops (with surrounding amino acid residues) conjugated to KLH as immunogens. Rabbits were screened prior to antigen injection for background antibodies that recognize the OprM outer loop immunogens to be used (i.e., SEQ ID NOS:3 and 4). Pre-immune rabbit sera was assayed by ELISA for antibodies to the immunogen.
Eight NZW rabbits were immunized on days 0, 21, 42, 63, 84 and 105 subcutaneously with either KLH-conjugated OprM outer loop 1 (SEQ ID NO:3) or outer loop 2 (SEQ ID NO:4) peptides (500 μg per injection). The Day 0 injection was formulated with Titermax while all subsequent injections were formulated with Freund's incomplete adjuvant. The rabbits were bled on days 52 (5 ml serum obtained), 73 (20 ml serum obtained), 94 (20 ml serum obtained), 115 (20 ml serum obtained) and 118 (50 ml serum obtained).

Test [3] concerns the target T1, OprM outer loop 1 (SEQ ID NO:3) (Pseudomonas aeruginosa, UniProt Q51487).
T1 construct: made in house; host or cells: chemical peptide synthesis
T1 sequence (Q51487 whole entry, looked up): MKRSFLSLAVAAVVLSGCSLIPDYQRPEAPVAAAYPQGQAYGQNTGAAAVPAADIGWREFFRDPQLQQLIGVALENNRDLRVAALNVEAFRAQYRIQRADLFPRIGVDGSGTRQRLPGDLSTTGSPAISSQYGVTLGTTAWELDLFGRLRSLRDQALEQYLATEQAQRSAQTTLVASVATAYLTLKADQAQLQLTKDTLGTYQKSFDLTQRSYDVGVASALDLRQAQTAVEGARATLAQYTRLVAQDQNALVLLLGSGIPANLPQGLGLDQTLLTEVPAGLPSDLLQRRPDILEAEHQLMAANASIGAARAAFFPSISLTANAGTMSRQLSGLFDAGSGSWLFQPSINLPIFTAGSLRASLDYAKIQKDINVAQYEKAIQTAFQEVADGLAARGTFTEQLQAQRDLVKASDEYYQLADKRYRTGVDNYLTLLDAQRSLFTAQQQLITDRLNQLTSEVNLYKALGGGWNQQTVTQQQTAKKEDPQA
Description: ELISA of immunized rabbit sera, antigen outer loop 1 peptide. The format is binding. Conditions: antigen SEQ ID NO:3; four rabbits per immunogen; FIG. 1 and 2. The procedure: (§1) Sera was assayed by ELISA to measure the amount of anti-OprM antibodies that were induced by the immunization. Purified peptide from either outer loop 1 or outer loop 2 was plated each well of a 96-well plate. A solution of PBS+3% BSA was used for non-specific blocking and sample/control/secondary antibody dilutions. The sample serum was run against a negative control (normal sera) and a positive control (anti-ovalbumin). The signal was detected using HRP conjugated anti-rabbit secondary antibodies and ABTS peroxidase substrate system. The plates were read at a wavelength of 415 nm with a reference at 570 nm.
For orientation: ELISA stands for enzyme-linked immunosorbent assay.

Test [4] addresses T2, OprM outer loop 2 (SEQ ID NO:4) (Pseudomonas aeruginosa, UniProt Q51487).
T2 construct: made in house; host or cells: chemical peptide synthesis
T2 sequence (Q51487 whole entry, looked up): T1 sequence (Q51487 whole entry, looked up)
Description: ELISA of immunized rabbit sera, antigen outer loop 2 peptide. The format is binding. Particulars: antigen SEQ ID NO:4; four rabbits per immunogen; FIG. 1 and 2. On the procedure: as §1

No end group written: not given here.

On to `NCC[C@H](O)C(=O)N[C@@H]1C[C@H](N)[C@@H](O[C@H]2O[C@H](CN)[C@@H](O)[C@H](O)[C@H]2O)[C@H](O)[C@H]1O[C@H]1O[C@H](CO)[C@@H](O)[C@H](N)[C@H]1O` [amikacin], for which the growth inhibitory concentration in test [1] is 64 µg/mL.

Turning to `O=C(O)c1cn(C2CC2)c2cc(N3CCNCC3)c(F)cc2c1=O` [ciprofloxacin], in test [1], the growth inhibitory concentration was more than 256 µg/mL.

“KLH-conjugated OprM outer loop 1 (SEQ ID NO:3): OprM outer loop 1 peptide with surrounding residues (SEQ ID NO:3), N-terminal CKK added, conjugated to keyhole limpet hemocyanin carrier (CKKRLPGDLSTTGSPA; also: conjugated to KLH carrier, site not given here; listed as Pseudomonas aeruginosa)”: the “immune response in immunized rabbits” value in test [2] is listed as “generated an immune response”. Also, the “antibodies in sera binding to peptide containing outer loop 1 (titer / cross-reactivity), ELISA” value in test [3] is recorded as “high titer”. The “antibodies in sera binding to peptide containing outer loop 2 (titer / cross-reactivity), ELISA” value in test [4] was 1 rabbit showed a small amount of cross-reactivity.

For “outer loop 2 (SEQ ID NO:4): OprM outer loop 2 peptide with surrounding residues (SEQ ID NO:4), N-terminal CKK added, conjugated to keyhole limpet hemocyanin carrier (CKKSRQLSGLFDAGSG; also: conjugated to KLH carrier, site not given here; listed as Pseudomonas aeruginosa)”, the “immune response in immunized rabbits” value in test [2] is “generated an immune response”. Also, the “antibodies in sera binding to peptide containing outer loop 1 (titer / cross-reactivity), ELISA” value in test [3] is on record as 2 rabbits showed a small amount of cross-reactivity. The “antibodies in sera binding to peptide containing outer loop 2 (titer / cross-reactivity), ELISA” value in test [4] was “high titer”.
